The values below are quoted from earlier work in patent US20250082624A1, “METHODS OF TREATING COGNITIVE IMPAIRMENT” (NeuroTherapia, Inc., priority 2023, published 2025).

The subject of the series is rats. Conditions: intracerebroventricular administration; cited from earlier work.

The structures appear in SMILES notation.

On to `Cc1c(C(=O)c2cccc3ccccc23)c2cccc3c2n1[C@H](CN1CCOCC1)CO3` [WIN 55,212-2], for which the “Aβ-induced microglial activation, cognitive impairment, loss of neuronal markers” value was “prevented A13-induced microglial activation, cognitive impairment, and loss of neuronal markers”.
